Results on 16 compounds are retold here after patent publication US10219516B2, “Molecules having pesticidal utility, and intermediates, compositions, and processes, related thereto” (priority 2015, dated 2019).

Holding throughout (type): in vivo
Assay [1] has as its system Yellow Fever Mosquito (Aedes aegypti, AEDSAE). The assay can be described thus: Bioassay on Yellow Fever Mosquito (YFM), 96-well plate larval assay. The settings on record: Species YFM (Yellow Fever Mosquito). In outline: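 Aedes aegypti larvae (about 1 day old) in liver-powder water were added to plates dispensed from DMSO master plates (4000 ppm stock) diluted with 90:10 water/acetone; six replicate plates per master. Lidded plates were held at room temperature for 3 days, then each well was scored for mortality.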

For assay [2], the system named is Green Peach Aphid (Myzus persicae, MYZUPE). Kind of assay: Bioassay on Green Peach Aphid (GPA), foliar spray on infested cabbage seedlings. The settings on record: foliar, 72 h, Species GPA (Green Peach Aphid), read-out: GPA (Biological Results, rating). The procedure, abridged:
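Cabbage seedlings (2-3 true leaves) infested with 20-50 wingless adult and nymph aphids one day before treatment; sprayed to runoff at 200 ppm in 0.025% Tween 20 water with 20% acetone/methanol, four pots per treatment. Held three days at about 25° C; live aphids counted, % control by Abbott's correction versus solvent check.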

Assay [3] relates to Beet Armyworm (Spodoptera exigua, LAPHEG). Kind of assay: Bioassay on Beet Armyworm (BAW), 128-well diet tray assay. The settings on record: Species BAW (Beet Armyworm), read-out: BAW (Biological Results, rating). The procedure, abridged:
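Diet in each of eight wells received 50 μg/cm^2 of test molecule (90:10 acetone-water, dried), then one to five second-instar larvae were added. Mortality (%) was scored after five to seven days at 25° C. under 14:10 light-dark and averaged across the wells.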

Assay [4] relates to Cabbage Looper (Trichoplusia ni, TRIPNI). The assay can be described thus: Bioassay on Cabbage Looper (CL), 128-well diet tray assay. The settings on record: Trichoplusia ni; Species CL (Cabbage Looper); read-out: CL (Biological Results, rating). In outline:
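Diet-incorporation-free surface assay: 50 μg/cm^2 compound in acetone-water (90:10), dried on diet; 1–5 2nd-instar larvae/well; 8 wells; vented cover; 25° C., 14:10 L:D, 5–7 d; % mortality averaged over wells.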

With `CCc1cccc(C)c1NC(=O)c1cc(NC(=O)[C@H]2[C@H](c3cc(Cl)cc(Cl)c3)C2(Cl)Cl)ccc1Cl` (relative stereo) [F42, trans-2-Chloro-5-(2,2-dichloro-3-(3,5-dichlorophenyl)cyclopropane-1-carboxamido)-N-(2-ethyl-6-methylphenyl)benzamide], the “YFM (Biological Results, rating)” value in assay [1] is listed as “A (80-100)”. In assay [2], the pest or weed control at 200 µg/mL is 0 to 80%. For the same compound, the pest or weed control at 50 µg/cm2 in assay [3] and in assay [4] was 50 to 100% throughout.
With `CN(C(=O)c1cc(NC(=O)[C@H]2[C@H](c3cc(Cl)cc(Cl)c3)C2(Cl)Cl)ccc1Cl)c1ccc(F)cc1F` (relative stereo) [F44, trans-2-Chloro-5-(2,2-dichloro-3-(3,5-dichlorophenyl)cyclopropane-1-carboxamido)-N-(2,4-difluorophenyl)-N-methylbenzamide], in assay [1], the “YFM (Biological Results, rating)” value is listed as “A (80-100)”. The pest or weed control at 200 µg/mL in assay [2] is 80 to 100%. Further, the pest or weed control at 50 µg/cm2 in assay [3] and in assay [4] was 50 to 100% throughout.
Consider `CN(C(=O)c1cc(NC(=O)[C@H]2[C@H](c3cc(Cl)cc(Cl)c3)C2(Cl)Cl)ccc1F)c1cccc(F)c1` (relative stereo) [F46, trans-5-(2,2-Dichloro-3-(3,5-dichlorophenyl)cyclopropane-1-carboxamido)-2-fluoro-N-(3-fluorophenyl)-N-methylbenzamide], for which, in assay [1], the “YFM (Biological Results, rating)” value is listed as “A (80-100)”. For the same compound, the pest or weed control at 200 µg/mL in assay [2] is 0 to 80%. In addition, the pest or weed control at 50 µg/cm2 in assay [3] and in assay [4] was 50 to 100% in each case.
`CN(C(=O)c1cccc(NC(=O)[C@H]2[C@H](c3cc(Cl)cc(Cl)c3)C2(Cl)Cl)c1F)c1ccc(F)cc1` (relative stereo) [F47, trans-3-(2,2-Dichloro-3-(3,5-dichlorophenyl)cyclopropane-1-carboxamido)-2-fluoro-N-(4-fluorophenyl)-N-methylbenzamide]: the “YFM (Biological Results, rating)” value in assay [1] is given as “B (More than 0-Less than 80)”. The pest or weed control at 200 µg/mL in assay [2] lay within 0 to 80%. In addition, the pest or weed control at 50 µg/cm2 in assay [3] and in assay [4] was 50 to 100% throughout.
Take `O=C(Nc1cccc(F)c1)c1cc(NC(=O)[C@H]2[C@H](c3cc(Cl)c(Cl)c(Cl)c3)C2(Cl)Cl)ccc1Cl` (relative stereo) [F50, trans-2-Chloro-5-(2,2-dichloro-3-(3,4,5-trichlorophenyl)cyclopropane-1-carboxamido)-N-(3-fluorophenyl)benzamide]: the “YFM (Biological Results, rating)” value in assay [1] is listed as “A (80-100)”. Moreover, the pest or weed control at 200 µg/mL in assay [2] lay within 0 to 80%. The pest or weed control at 50 µg/cm2 in assay [3] and in assay [4] was 50 to 100% in each case.
In the case of `O=C(Nc1cccc(F)c1)c1cc(NC(=O)[C@H]2[C@H](c3ccc(Cl)c(Cl)c3)C2(Cl)Cl)ccc1Cl` (relative stereo) [F51, trans-2-Chloro-5-(2,2-dichloro-3-(3,4-dichlorophenyl)cyclopropane-1-carboxamido)-N-(3-fluorophenyl)benzamide], the “YFM (Biological Results, rating)” value in assay [1] is “A (80-100)”. Further, the pest or weed control at 200 µg/mL in assay [2] lay in the range of 80 to 100%. The pest or weed control at 50 µg/cm2 in assay [3] and in assay [4] was 50 to 100% throughout.
As for `CN(C(=O)c1cc(NC(=O)[C@H]2[C@H](c3cc(Cl)c(Cl)c(Cl)c3)C2(Cl)Cl)ccc1Cl)c1ccc(F)cc1` (relative stereo) [F52, trans-2-Chloro-5-(2,2-dichloro-3-(3,4,5-trichlorophenyl)cyclopropane-1-carboxamido)-N-(4-fluorophenyl)-N-methylbenzamide], the “YFM (Biological Results, rating)” value in assay [1] was “A (80-100)”. The pest or weed control at 200 µg/mL in assay [2] is 80 to 100%. Besides, the pest or weed control at 50 µg/cm2 in assay [3] and in assay [4] was 50 to 100% in each case.
As for `CN(C(=O)c1cc(NC(=O)[C@H]2[C@H](c3ccc(Cl)c(Cl)c3)C2(Cl)Cl)ccc1Cl)c1ccc(F)cc1` (relative stereo) [F53, trans-2-Chloro-5-(2,2-dichloro-3-(3,4-dichlorophenyl)cyclopropane-1-carboxamido)-N-(4-fluorophenyl)-N-methylbenzamide], in assay [1], the “YFM (Biological Results, rating)” value is “A (80-100)”. In addition, the pest or weed control at 200 µg/mL in assay [2] lay in the range of 80 to 100%. Also, the pest or weed control at 50 µg/cm2 in assay [3] and in assay [4] was 50 to 100% throughout.
For the compound `Cc1cc(C#N)ccc1NC(=O)c1cc(NC(=O)[C@H]2[C@H](c3cc(Cl)c(Cl)c(Cl)c3)C2(Cl)Cl)ccc1Cl` (relative stereo) [F54, trans-2-Chloro-N-(4-cyano-2-methylphenyl)-5-(2,2-dichloro-3-(3,4,5-trichlorophenyl)cyclopropane-1-carboxamido)benzamide], the “YFM (Biological Results, rating)” value in assay [1] is “A (80-100)”. In assay [2], the pest or weed control at 200 µg/mL was in the range of 0 to 80%. Besides, the pest or weed control at 50 µg/cm2 in assay [3] and in assay [4] was 50 to 100% throughout.
Take `Cc1cc(C#N)ccc1NC(=O)c1cc(NC(=O)[C@H]2[C@H](c3ccc(Cl)c(Cl)c3)C2(Cl)Cl)ccc1Cl` (relative stereo) [F55, trans-2-Chloro-N-(4-cyano-2-methylphenyl)-5-(2,2-dichloro-3-(3,4-dichlorophenyl)cyclopropane-1-carboxamido)benzamide]: in assay [1], the “YFM (Biological Results, rating)” value is reported as “A (80-100)”. For the same compound, the pest or weed control at 200 µg/mL in assay [2] was 80 to 100%. Moreover, the pest or weed control at 50 µg/cm2 in assay [3] and in assay [4] was 50 to 100% each time.
For the compound `CN(C(=O)c1cc(NC(=O)[C@H]2[C@H](c3ccc(Cl)c(Cl)c3)C2(Cl)Cl)ccc1F)c1ccc(F)cc1F` (relative stereo) [F64, trans-5-(2,2-Dichloro-3-(3,4-dichlorophenyl)cyclopropane-1-carboxamido)-N-(2,4-difluorophenyl)-2-fluoro-N-methylbenzamide], the “YFM (Biological Results, rating)” value in assay [1] is “B (More than 0-Less than 80)”. In addition, the pest or weed control at 200 µg/mL in assay [2] lay within 80 to 100%. Besides, the pest or weed control at 50 µg/cm2 in assay [3] and in assay [4] was 50 to 100% each time.
Regarding `O=C(Nc1ccc(F)cn1)c1cc(NC(=O)[C@H]2[C@H](c3cc(Cl)cc(Cl)c3)C2(Cl)Cl)ccc1Cl` (relative stereo) [F76, trans-2-Chloro-5-(2,2-dichloro-3-(3,5-dichlorophenyl)cyclopropane-1-carboxamido)-N-(5-fluoropyridin-2-yl)benzamide], the “YFM (Biological Results, rating)” value in assay [1] is “B (More than 0-Less than 80)”. For the same compound, in assay [2], the pest or weed control at 200 µg/mL is 80 to 100%. The pest or weed control at 50 µg/cm2 in assay [3] and in assay [4] was 50 to 100% throughout.
`CNC(=O)c1ccc(NC(=O)c2cc(NC(=O)[C@H]3[C@H](c4cc(Cl)cc(Cl)c4)C3(Cl)Cl)ccc2Cl)cn1` (relative stereo) [F77, trans-5-(2-Chloro-5-(2,2-dichloro-3-(3,5-dichlorophenyl)cyclopropane-1-carboxamido)benzamido)-N-methylpicolinamide]: the “YFM (Biological Results, rating)” value in assay [1] is recorded as “A (80-100)”. In addition, the pest or weed control at 200 µg/mL in assay [2] is 80 to 100%. In addition, the pest or weed control at 50 µg/cm2 in assay [3] and in assay [4] was 50 to 100% each time.
With `O=C(Nc1ccc(F)cc1)c1cc(NC(=O)[C@H]2[C@H](c3ccc(OC(F)(F)F)c(Cl)c3)C2(Cl)Cl)ccc1Cl` (relative stereo) [F79, trans-2-Chloro-5-(2,2-dichloro-3-(3-chloro-4-(trifluoromethoxy)phenyl)cyclopropane-1-carboxamido)-N-(4-fluorophenyl)benzamide], the “YFM (Biological Results, rating)” value in assay [1] is listed as “B (More than 0-Less than 80)”. Further, in assay [2], the pest or weed control at 200 µg/mL fell in the range of 80 to 100%. Also, the pest or weed control at 50 µg/cm2 in assay [3] and in assay [4] was 50 to 100% throughout.
As for `CN(C(=O)c1cc(NC(=O)[C@H]2[C@H](c3ccc(OC(F)(F)F)c(Cl)c3)C2(Cl)Cl)ccc1Cl)c1ccc(F)cc1` (relative stereo) [F80, trans-2-Chloro-5-(2,2-dichloro-3-(3-chloro-4-(trifluoromethoxy)phenyl)cyclopropane-1-carboxamido)-N-(4-fluorophenyl)-N-methylbenzamide], the “YFM (Biological Results, rating)” value in assay [1] is “A (80-100)”. The pest or weed control at 200 µg/mL in assay [2] is 80 to 100%. For the same compound, the pest or weed control at 50 µg/cm2 in assay [3] and in assay [4] was 50 to 100% each time.
For the compound `O=C(Nc1ccc(F)cc1)c1cc(NC(=O)[C@H]2[C@H](c3cc(Cl)cc(C(F)(F)F)c3)C2(Cl)Cl)ccc1Cl` (relative stereo) [F87, trans-2-Chloro-5-(2,2-dichloro-3-(3-chloro-5-(trifluoromethyl)phenyl)cyclopropane-1-carboxamido)-N-(4-fluorophenyl)benzamide], the “YFM (Biological Results, rating)” value in assay [1] is “A (80-100)”. In assay [2], the pest or weed control at 200 µg/mL lay in the range of 80 to 100%. Besides, the pest or weed control at 50 µg/cm2 in assay [3] and in assay [4] was 50 to 100% in each case.
